In series [1] the test system is breast and gastric cancer. As to conditions: cited from earlier work.
Series [2] relates to peripheral blood leukocyte (PBL). Briefly: clinical. As to conditions: human, in vivo, 0 min. The procedure:
(§1) Lymphocytes were prepared from fresh heparinized peripheral venous blood by Ficoll-Hypaque density gradient centrifugation (Litton Bionetics, Rockville, Md.). Cells were washed three times with Hanks' balanced salt solution (HBSS), and resuspended to a concentration of 10×10^6 cells/ml in a complete medium (CM), that consisted of RPMI-1640 supplemented with 10% fetal calf serum and 1% antibiotics (100 U penicillin and 100 μg/ml streptomycin) and within an hour of isolation cells were used for different assays.

Series [3] in a line: clinical. To be noted: human, in vivo, 60 mg/kg. As for the experimental part: as §1
In series [4] the test system is K562 tumor target cells. As to the kind of experiment: NK cell activity with repeated administration every four hours, Example 2. The series is classed as in vivo, human. To be noted: 15 mg/kg ascorbic acid or biologically equivalent amount every four hours, twenty-four hours. The procedure:
(§2) Chromium-release Assay for measuring NK cell activity:
(§3) A standard 4-hr ^51 Cr-release assay was employed. Briefly, 1×10^4 ^51 Cr-labelled K562 tumor target cells in
(§4) 0.1 ml CM were added to different wells of a microtiter plate. Effector cells were then pipetted into quadruplicate wells to give effector: target (E:T) ratios of 6:1, 12:1, 25:1 and 50:1. After a 4-hr incubation at 37° C., the microtiter plates were centrifuged at 1400 rpm for 5 min and 0.1 ml of supernatant from each well was collected and counted in a gamma counter. The percentages of isotope released were calculated by the following formula: [formula]
(§5) Total release was measured by adding […] Triton X-100 to designated wells. Lytic units (LU) were calculated from effector titration curves. One LU was defined as the number of effector cells required to achieve 20% lysis.

In series [5] the test system is skin tumors and estrogen-induced renal tumors. To be noted: in vivo; cited from earlier work.
In series [6] the test system is NK cell population. As to the kind of experiment: NK cell population and sub-populations by flow cytometry, Example 1. The series is classed as in vivo, human. To be noted: 0 and 24 hours post treatment; Anti-CD56 and Anti-CD3. The procedure: NK cell subset enumeration was carried out in ascorbate-treated and non-treated cell populations. A single laser flow cytometer (Epics Profile: Coulter Epics, Inc., Hialeah, Fla.), which discriminates forward and right-angle light scatter, as well as two colors, was used with an appropriate software package (Quad Stat: Coulter). Mononuclear cell populations were determined by two-color direct immunofluorescence, by using a whole-blood staining technique with the appropriate monoclonal antibody and flow cytometry. […]
lymphocyte markers, bit maps were set on the lymphocyte population of the forward-angle light scatter versus a 90° light scatter histogram. The percentage of positively stained cells for each marker pair, as well as the percentage of doubly stained cells, was determined. Estimates of the absolute numbers of lymphocyte positive for the respective surface markers were determined by multiplying peripheral lymphocyte cell count by the percentage of cells positive for each surface marker.
Total NK cell population and its sub-populations were also examined in this example. The total NK cell population and its sub-populations were determined both post-treatment with ascorbic acid alone and post-treatmentwith the formulation of the present invention by flow cytometry, using Anti-CD56 and Anti-CD3 monoclonal antibodies, respectively.
(A flow cytometer gives signals particle by particle.)

Series [7] in a line: clinical. As to conditions: human, plasma, 60 mg/kg.
Description: Twenty-two healthy subjects were randomly selected for this example. The subjects ranged in age from 20 to 24 years, with a mean of 22 years. The subjects had not ingested any medications for at least two weeks before participation in the study.
Clearance and the uptake of ascorbic acid was measured in the plasma and mononuclear cell, respectively.
Briefly described, 5×10^6 cells were suspended in 0.2 ml of PBS, sonicated for 30 seconds, and 1 ml of 5% trichloroacetic acid (TCA) was added. The mixture was centrifuged to remove the precipitates and the supernatant was used to measure the level of ascorbic acid. From the mixture, 1.2 ml of this supernatant or 0.5 ml plasma was mixed with 0.4 ml of Dinitrophenyl-hydrazine-Thiourea-Copper (DCT) reagent, incubated at 37° C. for 3 hours, then transferred to an ice-water bath for 10 minutes. Then 2 ml of cold 12M H2 SO4 was added and the mixture was kept at room temperature for 20 min.
For series [8], the system named is glutathione. As to conditions: 500 mg/day; cited from earlier work.
For series [9], the system named is K562 tumor target cells. Briefly: NK cell cytotoxic activity (4-hr 51Cr-release assay) before and after oral administration to healthy subjects, Example 1. The series is classed as in vivo, human. As for the experimental part: This example compares the effect of ascorbic acid and the formulation of the present invention on NK cell activity, NK cell population, and peripheral blood leukocyte (PBL) uptake.
as §1, §2, §3, §4, §5
In FIG. 1A the NK cell activity is represented in lytic units (LU) on the vertical axis with time being represented in hours on the horizontal axis.
In FIG. 1B, the hollow bars represent the subject's NK cell activity before administration of either ascorbic acid alone or the formulation of the present invention.

Each structure is given as a SMILES string.

In the case of `O=C1O[C@H]([C@@H](O)CO)C(O)=C1O` [ascorbic acid, 3-oxo-1-gulofuranolactone], the antitumor activity result in series [1] is “demonstrates antitumor activity against breast and gastric cancer”. For the same compound, in [2], the “mean (M±SD) uptake of ascorbic acid by 5×10^6 white blood cells” value is recorded as 5.1 μg/dl. Further, in series [3], the concentration at 1 h was 64 ng/mL, the concentration at 2 h was determined as 101 ng/mL, the concentration at 4 h came out at 95 ng/mL and the concentration at 8 h turned out to be 79 ng/mL. In series [3], this compound gave a concentration at 24 h of 74 ng/mL and a concentration at 48 h of 49 ng/mL. Further, in series [4], the NK cell activity result was “repeated suppression of NK cell activity”. The tumor regression entry in series [5] is “causes regression of skin tumors and estrogen-induced renal tumors in vivo”. Also, the “percentages of total NK cell population, or its sub-populations” value in series [6] is listed as “no significant effect”. Also, the concentration at 1 h in series [7] was ~42000 ng/mL. For the same compound, the “plasma concentrations of glutathione” value in series [8] is on record as “increases plasma concentrations of glutathione”. In [9] (60 mg/kg ascorbic acid, twenty-four hours post-administration, FIG. 1A), the NK cell activity came to 90 LU. For the same compound, the NK cell activity result in [9] (60 mg/kg, forty-eight hours, FIG. 1A) is “declined to near pre-administration levels”. In addition, the “NK cell activity change” value in series [9] (60 mg/kg, one to two hours after administration, FIG. 1A) was “transitory decrease in NK cell activity”. In series [9] (60 mg/kg, post-administration, FIG. 1A), the “time of recovery of NK cell activity to pre-administration levels” value is “about four”. For the same compound, the “period of inhibition of NK cell activity” value in series [9] (early transient phase, followed by enhancement) is listed as “two to four”. Besides, the “overall suppression of NK cell activity (summary)” value in series [9] (shortly after administration) is “transient suppression or inhibition of NK cell activity”. The “suppression of NK cell activity” value in [9] (zero to four hours post-administration, FIG. 1A) was “transient suppression of NK cell activity”.

These data come from patent US5626883A, “Ascorbic acid compositions providing enhanced human immune system activity” (priority 1994, dated 1997).
